Measurements published in patent US11891634B2, “PDE5A destabilizing domains” (The Board of Trustees of the Leland Stanford Junior …, priority 2017, dated 2024).

Experiments:
PDE5A-AcGFP fusions = assay: FACS analysis of N-terminal PDE5A mutants (PDE5A-AcGFP fusions), Sildenafil vs vehicle; type: cell-based, mouse; settings: 24 hours; for Stabilization ratio: Sildenafil 20 μM vs vehicle alone; for Mean Fluorescence Intensity (MFI) Sildenafil (20 μM) / Mean Fluorescence Intensity (MFI) Vehicle control: NIH3T3; for Mean Fluorescence Intensity (MFI) Vehicle control: vehicle alone
Experimental: (§1) The NIH3T3 cell line was cultured in DMEM supplemented with 10% heat-inactivated donor bovine serum (Invitrogen), 2 mM glutamine, 100 U/ml penicillin and 100 μg/ml streptomycin.
(§2) The ΦNX ecotropic packaging cell line was transfected using standard Lipofectamine 2000 protocols. Viral supernatants were harvested 48 hours, post transfection, filtered and concentrated 10-fold using Amicon Ultra centrifugal filter device with a 100kDa cutoff. NIH 3T3 cells were incubated with concentrated retroviral supernatants supplemented with 4 μg/ml polybrene for 4 hours at 37° C. Cells were washed once with PBS and cultured in growth media for 24-36 hours to allow for viral integration.
(§3) The transduced NIH3T3 cells were subjected to analysis using fluorescence-activated cell sorting (FACS) to screen the libraries of PDE5A mutants. 24 hours prior to analysis, transduced NIH3T3 cells were plated at 1×10^5 cells per well of a 12-well plate. Cells were removed from the plate using PBS and 2 mM EDTA, washed once with PBS, and resuspended in 200 μL, PBS. FACS analysis was performed on instruments at the Stanford Shared FACS Facility with 10,000 events represented.
(§4) To identify destabilizing domains that are responsive to the PDE5A ligand, Sildenafil, a cell-based screening assay was employed in which the fluorescence of green fluorescent protein derived from Aequorea coerulescens (AcGFP) served as an indicator of PDE5A stability. A library based on the PDE5A catalytic domain sequences was generated using error prone PCR and then cloned in-frame in front of AcGFP. A Moloney murine leukemia retroviral expression was used to stably integrate this library of PDE5A-AcGFP fusions into NIH-3T3 fibroblasts, and the transduced cells were subjected to three rounds of sorting using flow cytometry. In the first round, cells were treated with 10 μM of PDE5A ligand, Sildenafil for 16-24 before analysis. Fluorescent cells were collected and further cultured in the absence of ligand for 60 hours.
(§5) A library of PDE5A-AcGFP fusions i.e., N-terminal PDE5A mutants, was screened using the cell-based screening assay described previously to identify N-terminal destabilizing domains. […] Identified candidates were subjected to further characterization by FACS. Cells were split into two treatment groups and incubated with either Sildenafil (20 μM) or vehicle alone for 24 hours. Cells that were mock transduced or transduced with the wild-type PDE5A construct were also included in the analysis. The results are presented in Table 6 where the N terminal PDE5A mutants are denoted as PDE5AN. The stabilization ratio was calculated as the fold change in GFP intensity of the PDE5A-AcGFP construct in Sildenafil treated sample compared to vehicle alone treated sample.

[1] = test system: NIH3T3 cells expressing AcGFP-PDE5A fusions; assay: FACS analysis of C-terminal PDE5A mutants (AcGFP-PDE5A fusions), Sildenafil vs vehicle; type: cell-based, mouse; settings: Table 2, 24 hours; for Mean Fluorescence intensity: NIH3T3; for Stabilization ratio: fold change in GFP intensity, Sildenafil 10 μM vs vehicle alone
Experimental: as §1, §2, §3, §4
as §5, with “AcGFP-PDE5A” for “PDE5A-AcGFP”, “C-terminal” for “N-terminal”, “mutants” for “mutants,”, “(10” for “(20”, “The” for “The results are presented in Table 6 where the N terminal PDE5A mutants are denoted as PDE5AN. The”, “sample. The results are presented in Table 2 where the C terminal PDE5A mutants are denoted as PDE5AC.” for “sample.”
Residue D764 was identified as a mutational hotspot from sequence analysis. PDE5AC (#41) was engineered with either D764N or D764G mutation via site-directed mutagenesis. PDE5AC (#41) +D764N comprises the amino acid sequence of SEQ ID NO. 53 (encoded by SEQ ID NO. 54) and PDE5AC (#41) +D764G comprises the amino acid sequence of SEQ ID NO. 55 (encoded by SEQ ID NO. 56). AcGFP-PDE5A variants were evaluated for Sildenafil dependent stabilization via FACS as described previously. Results from FACS analysis are presented in Table 4 where the C terminal PDE5A mutants are denoted as PDE5AC. The stabilization ratio was calculated as the fold change in GFP intensity of the AcGFP-PDE5A construct in Sildenafil treated sample compared to vehicle alone treated sample.
Extended versions of human PDE5A that included residues in addition to catalytic domain (residues 535-860 of SEQ ID NO. 1) with Q589R polymorphism (SEQ ID NO. 11) were evaluated for use as C-terminal destabilizing domains. Three extended PDE5A sequences were tested that consisted of residues 535-875 of SEQ ID NO. 1 with Q589R polymorphism (SEQ ID NO. 13); residues 466-875 of SEQ ID NO. 1 with Q589R polymorphism (SEQ ID NO. 15); or residues 420-875 of SEQ ID NO. […]

[2] = target: T1, HCT 116 cells transduced with the PDE5A DD derived GFP constructs (Homo sapiens, UniProt O76074, K633E/K795E/K852E/Q589R/T712S); assay: Response to Tadalafil, GFP expression by FACS in HCT116; type: cell-based; settings: 48 hrs, HCT116
T1 construct: Mutations were created in PDE5A (535-860) catalytic domain using site directed mutagenesis; expressed in transfected cells; host or cells: HCT116 (lentiviral transduction, pELNS vector, sorted on mCherry)
Procedure, shortened: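 HCT116 cells stably transduced (mCherry-sorted) with lentiviral PDE5A DD–AcGFP constructs, exposed to DMSO or Tadalafil 0.01–100 μM for 48 hrs. GFP mean fluorescence by FACS; stabilization ratio = ligand vs no-ligand signal, basal expression = no-ligand signal vs parental autofluorescence.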

[3] = Sildenafil (10 μM) −, vehicle alone

Row | Substance | Stabilization ratio (PDE5A-AcGFP fusions) | Mean Fluorescence Intensity (MFI) Sildenafil (20 μM) (PDE5A-AcGFP fusions) | Mean Fluorescence Intensity (MFI) Vehicle control (PDE5A-AcGFP fusions) | Mean Fluorescence intensity ([1]; Sildenafil (10 μM) +) | Mean Fluorescence intensity [1, 3] | Stabilization ratio [1] | Tadalafil concentrations at which stabilization ratios greater than 1 were obtained [2]
1 | PDE5AN (#53): N-terminal DD 535-860 of PDE5A (E536G, Q589R, C839S), SEQ ID NO. 67, fused to AcGFP | 2.62 | 4440 | 1697 | – | – | – | –
2 | PDE5AC (#69): AcGFP fused to C-terminal DD 535-860 of PDE5A (Q589R, N636S, D687A, D764N, S815C), SEQ ID NO. 30 | – | – | – | 6365 | 1126 | 5.6 | –
3 | PDE5AC (#13): AcGFP fused to C-terminal DD 535-860 of PDE5A (Q589R, Y676D, L738H), SEQ ID NO. 24 | – | – | – | 6284 | 1076 | 5.8 | –
4 | PDE5AC (#25): AcGFP fused to C-terminal DD 535-860 of PDE5A (Q541R, F559L, Q589R, H678R, I824T), SEQ ID NO. 35 | – | – | – | 2340 | 1452 | 1.6 | –
5 | PDE5AC (#43): AcGFP fused to C-terminal DD 535-860 of PDE5A (Q589R, N609H, Y676N, A762S), SEQ ID NO. 29 | – | – | – | 5518 | 1017 | 5.4 | –
6 | PDE5AC (#28): AcGFP fused to C-terminal DD 535-860 of PDE5A (Q589R, K591E, N609H, D764V), SEQ ID NO. 25 | – | – | – | 6055 | 1382 | 4.4 | –
7 | PDE5AN (#3): N-terminal DD 535-860 of PDE5A (Q589R, K633E, T712S, K852E, K795E), SEQ ID NO. 66, fused to AcGFP | 3.97 | 3335 | 839 | – | – | – | greater than 0.41 μM
